# Test results from the NIST ThermoML archive (doi:10.1016/j.tca.2015.08.032).
# Where “and” joins values, the source holds several entries; their conditions need not be identical. Equal entries are not always repeated. Numbers after ± are expanded uncertainties.
# Experiments:
# [1] = for mass density / viscosity: 101.33 kPa, Liquid; for mass density: Pycnometric method; for Normal melting temperature: Crystal, DTA; for viscosity: Cone and plate viscometry
# [2] = molar heat capacity at constant pressure; conditions: 101.33 kPa, Liquid, Small sample (50 mg) DSC
structure (smiles),measurement,setting,value
Cn1cc[n+](CC(Br)CN=[N+]=[N-])c1.[Br-] (stereo not given) [1-(3-azido-2-bromopropyl)-3-methyl-3H-imidazol-1-ium bromide],mass density,[1]; 298 K,1340 ± 10 kg/m3
same,Normal melting temperature,[1],17 ± 1 °C
Cn1cc[n+](CC(CBr)N=[N+]=[N-])c1.[Br-] (stereo not given) [1-(2-azido-3-bromopropyl)-3-methyl-3H-imidazol-1-ium bromide],mass density,[1]; 298 K,1360 ± 10 kg/m3
same,Normal melting temperature,[1],10 ± 1 °C
C=Cn1cc[n+](CC(C[n+]2ccn(C)c2)N=[N+]=[N-])c1.[Br-].[Br-] (stereo not given),mass density,[1]; 298 K,1560 ± 20 kg/m3
same,Normal melting temperature,[1],23 ± 1 °C
C=Cn1cc[n+](CC(C[n+]2ccn(C)c2)N=[N+]=[N-])c1.N#C[N-]C#N.N#C[N-]C#N (stereo not given),viscosity,[1]; 298 K,83.9 ± 9.5 mPa·s
same,mass density,[1]; 298 K,1490 ± 20 kg/m3
same,viscosity,[1]; 298.9 K,66.3 ± 7.3 mPa·s
same,viscosity,[1]; 300 K,58.4 ± 6.2 mPa·s
same,viscosity,[1]; 300.9 K,53 ± 5.5 mPa·s
same,viscosity,[1]; 303 K,45.8 ± 4.8 mPa·s
same,viscosity,[1]; 307.9 K,35.6 ± 3.7 mPa·s
same,viscosity,[1]; 312.9 K,29.9 ± 3.1 mPa·s
same,viscosity,[1]; 317.9 K,26.2 ± 2.7 mPa·s
same,viscosity,[1]; 322.9 K,23.4 ± 2.4 mPa·s
same,viscosity,[1]; 327.9 K,20.8 ± 2.1 mPa·s
same,viscosity,[1]; 332.9 K,18.7 ± 1.9 mPa·s
same,viscosity,[1]; 337.9 K,17.1 ± 1.8 mPa·s
same,viscosity,[1]; 342.9 K,16.4 ± 1.7 mPa·s
same,viscosity,[1]; 347.9 K,15.8 ± 1.6 mPa·s
same,viscosity,[1]; 353 K,15.2 ± 1.6 mPa·s
same,viscosity,[1]; 357.9 K,14.6 ± 1.5 mPa·s
same,viscosity,[1]; 362.9 K,14 ± 1.4 mPa·s
same,Normal melting temperature,[1],19 ± 1 °C
same,molar heat capacity at constant pressure,[2]; 298 K,400 ± 25 J/K/mol
same,molar heat capacity at constant pressure,[2]; 303 K,409.7 ± 25 J/K/mol
same,molar heat capacity at constant pressure,[2]; 323 K,452 ± 28 J/K/mol
Cn1cc[n+](CC(CBr)N=[N+]=[N-])c1.N#C[N-]C#N (stereo not given),viscosity,[1]; 298 K,57.01 ± 5.9 mPa·s and 56.9 ± 5.9 mPa·s
same,mass density,[1]; 298 K,1310 ± 10 kg/m3
same,viscosity,[1]; 299 K,53.28 ± 5.5 mPa·s
same,viscosity,[1]; 300 K,49.6 ± 5.2 mPa·s and 49.44 ± 5.2 mPa·s
same,viscosity,[1]; 301 K,46.03 ± 4.8 mPa·s
same,viscosity,[1]; 302 K,42 ± 4.4 mPa·s and 42.05 ± 4.4 mPa·s
same,viscosity,[1]; 303.1 K,38.84 ± 4 mPa·s
same,viscosity,[1]; 304 K,35.9 ± 3.7 mPa·s and 35.89 ± 3.7 mPa·s
same,viscosity,[1]; 306 K,30.94 ± 3.2 mPa·s
same,viscosity,[1]; 306.1 K,30.9 ± 3.2 mPa·s
same,viscosity,[1]; 307.9 K,26.97 ± 2.8 mPa·s and 26.9 ± 2.8 mPa·s and 26.98 ± 2.8 mPa·s
same,viscosity,[1]; 309.8 K,23.3 ± 2.4 mPa·s
same,viscosity,[1]; 313.9 K,17.9 ± 1.9 mPa·s
same,viscosity,[1]; 317.9 K,13.9 ± 1.4 mPa·s
same,viscosity,[1]; 322 K,10.8 ± 1.1 mPa·s
same,viscosity,[1]; 325.9 K,8.8 ± 0.9 mPa·s
same,viscosity,[1]; 331.8 K,5.9 ± 0.6 mPa·s
same,viscosity,[1]; 336 K,4.8 ± 0.5 mPa·s
same,viscosity,[1]; 339.9 K,4.1 ± 0.4 mPa·s
same,viscosity,[1]; 344 K,3.5 ± 0.4 mPa·s
same,viscosity,[1]; 347.9 K,3.1 ± 0.3 mPa·s
same,viscosity,[1]; 353 K,2.5 ± 0.3 mPa·s
same,viscosity,[1]; 357.9 K,2.2 ± 0.2 mPa·s
same,viscosity,[1]; 361.9 K,2 ± 0.2 mPa·s
same,Normal melting temperature,[1],-2 ± 1 °C
Cn1cc[n+](CC(Br)CN=[N+]=[N-])c1.N#C[N-]C#N (stereo not given),mass density,[1]; 298 K,1280 ± 10 kg/m3
same,Normal melting temperature,[1],6 ± 1 °C
